Converted amounts (≈) assume the structure as drawn. “And” between values parts separate entries of the source, which are not always exact repeats. Identical values can stand only once.
Assays:
C. albicans = test: Fluconazole MIC given as descriptor of azole resistant clinical isolates (Table 10); type: cell-based; details: Candida albicans
Candida albicans [1] = test: CLSI broth microdilution MIC (Example 5); type: cell-based; details: for activity against one or more isolates of Cryptococcus neoformans and Candida albicans: summary in words
Summary of the method: (§1)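 Broth microdilution per CLSI in RPMI 1640 with twofold compound dilutions, inoculum about 2×10^3 cells/mL. Plates incubated at 35° C for 24-48 hours. MIC determined per isolate in duplicate, with a third repeat when the two values differed.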

Cryptococcus neoformans [2] = test: CLSI broth microdilution MIC (Example 5); type: cell-based
Summary of the method: as §1

Candida albicans [3] = test: CLSI broth microdilution MIC (Example 6); type: cell-based
Summary of the method: (§2)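 CLSI broth microdilution in RPMI 1640, compounds serially double-diluted, inoculum about 2×10^3 cells/mL. Incubation at 35° C for 24-48 hours. MICs determined per isolate in duplicate, with a third repeat if values differed.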

Cryptococcus neoformans [4] = test: CLSI broth microdilution MIC (Example 6); type: cell-based
Summary of the method: as §2

[5] = system: Candida albicans ATCC14053; test: Broth micro-dilution screen at 16 μg/mL and MIC (Example 9); type: cell-based; details: for MIC: C. albicans ATCC14053, test range 0.25-64 μg/mL, duplicate; for Screen at 16 μg/mL: single concentration 16 μg/mL, Growth or No growth of C. albicans ATCC14053
Experimental: The antifungal activity of 201 NCL analogs against Candida albicans ATCC14053 in vitro was investigated. A broth micro-dilution method was used, according to CLSI guidelines as described. NCL analogs were dissolved in DMSO and originally screened at a single concentration of 16 μg/mL.

C. gattii = test: CLSI broth microdilution MIC (Example 6); type: cell-based, Cryptococcus gattii
Summary of the method: as §2

Candida albicans [6] = test: CLSI broth microdilution MIC (Example 4); type: cell-based; details: for antifungal activity against the two isolates of Candida albicans: summary in words
Summary of the method: (§3)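 CLSI broth microdilution in RPMI 1640 with two-fold compound dilutions and inoculum about 2×10^3 cells/mL. Plates incubated 35° C for 24-48 hours; MICs determined in duplicate, with a third test when the duplicates differed.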

Cryptococcus neoformans [7] = test: CLSI broth microdilution MIC (Example 4); type: cell-based
Summary of the method: as §3

Candida albicans [8] = test: CLSI broth microdilution MIC (Example 3); type: cell-based
Experimental: (§4) Antifungal minimum inhibitory concentration (MIC) testing was undertaken as recommended by the CLSI. Briefly, antifungal susceptibility tests were performed for amphotericin B, robenidine (NCL812) and 5 robenidine analogs (NCL062, NCL195, NCL219, NCL259, NCL265) by standard broth microdilution method (CLSI) in RPMI 1640. Various concentrations (ranging from high to low) of the selected compounds were prepared in RPMI 1640 medium by double dilution in 96-well microtitre plates. Each well contained an inoculum of approximately 2×10^3 cells/mL. The wells without addition of drugs served as negative (no inoculum) and positive (inoculum only) growth controls. Microtitre plates were incubated at 35° C. for 24-48 hours. […] Antifungal MICs were determined for each isolate in duplicate; if the values obtained were different, the MIC test was repeated a third time. Antifungal susceptibility tests were performed for amphotericin B and NCL analogs by standard broth microdilution method (CLSI). Briefly, various concentrations (ranging from high to low) of the selected compounds were prepared in RPMI 1640 medium by double dilution in the 96-well plates. Each well contained an inoculum of approximately 2×10^3 cells/mL. The wells without addition of drugs served as a negative control. Micro plates were incubated at 35° C. for 48 hour and read spectrophotometrically at 600 nm, using a microplate reader (Multiskan-EX; Thermo Elect. Corp., USA).

Candida parapsilosis = test: CLSI broth microdilution MIC (Example 3); type: cell-based; details: Candida parapsilosis ATCC 22019
Experimental: as §4

[9] = clinical isolate C. albicans 12-93301752 Azole Resistant
[10] = clinical isolate C. albicans 14-90045999 Azole Resistant
[11] = clinical isolate C. albicans 15-45171061
[12] = clinical isolate C. albicans 15-91329871
[13] = clinical isolate C. albicans 16-24136919 Azole Resistant
[14] = clinical isolate C. albicans 16-46177400
[15] = clinical isolate C. albicans 16-90050810
[16] = clinical isolate C. albicans 16-90054237
[17] = clinical isolate C. albicans 18-144-00196
[18] = clinical isolate C. albicans 18-148-08188 Azole Resistant
[19] = human clinical isolate C. neoformans serotype A/D hybrid
[20] = human clinical isolate C. neoformans var grubii 16-90050434
[21] = human clinical isolate C. neoformans var grubii 17-90028233
[22] = human clinical isolate C. neoformans var grubii 17-93996464
[23] = human clinical isolate C. neoformans var grubii 17-93996964
[24] = human clinical isolate C. gatti 17-90232099
[25] = human clinical isolate C. gattii 16-90050373
[26] = human clinical isolate C. gattii 17-90028211
[27] = human clinical isolate C. gattii 17-90028217
[28] = human clinical isolate C. gattii 17-90028242
[29] = Candida albicans ATCC 90028, 1st
[30] = Candida albicans ATCC 90028, 2nd

Structure (SMILES): OC(Cn1cncn1)(Cn1cncn1)c1ccc(F)cc1F [Fluconazole]
- MIC (C. albicans; C. albicans 12-93301752 Azole Resistant): 32 µg/mL (≈ 104 µM)
- MIC (C. albicans; C. albicans 14-90045999 Azole Resistant): 64 µg/mL (≈ 209 µM)
- MIC (C. albicans; C. albicans 16-24136919 Azole Resistant): 256 µg/mL (≈ 836 µM)
- MIC (C. albicans; C. albicans 18-148-08188 Azole Resistant): 8 µg/mL (≈ 26.1 µM)

Structure (SMILES): [H]/N=C(\N)NN=C(CC1CCCCC1)c1ccc(Cl)cc1 [NCL259]
- MIC (Candida albicans [1]; C. albicans SA3): 16 µg/mL (≈ 54.6 µM)
- MIC (Candida albicans [1]; Candida albicans ATCC 90028): 16 µg/mL (≈ 54.6 µM)
- MIC (Candida albicans [1]; [9]): 16 µg/mL (≈ 54.6 µM)
- MIC (Candida albicans [1]; [10]): >16 µg/mL
- MIC (Candida albicans [1]; [11]): 8 µg/mL (≈ 27.3 µM)
- MIC (Candida albicans [1]; [12]): >16 µg/mL
- MIC (Candida albicans [1]; [13]): 8 µg/mL (≈ 27.3 µM)
- MIC (Candida albicans [1]; [14]): >16 µg/mL
- MIC (Candida albicans [1]; [15]): >16 µg/mL
- MIC (Candida albicans [1]; [16]): 32 µg/mL (≈ 109 µM)
- MIC (Candida albicans [1]; [17]): >16 µg/mL
- MIC (Candida albicans [1]; [18]): >16 µg/mL
- activity against one or more isolates of Cryptococcus neoformans and Candida albicans (Candida albicans [1]): highly active
- MIC (Cryptococcus neoformans [2]; Cryptococcus neoformans SA1): 2 µg/mL (≈ 6.83 µM)
- MIC (Cryptococcus neoformans [2]; Cryptococcus neoformans SA2): 2 µg/mL (≈ 6.83 µM)
- MIC (Candida albicans [3]; C. albicans SA3): 16 µg/mL (≈ 54.6 µM)
- MIC (Candida albicans [3]; Candida albicans ATCC 90028): 16 µg/mL (≈ 54.6 µM)
- MIC (Cryptococcus neoformans [4]; Cryptococcus neoformans SA1): 2 µg/mL (≈ 6.83 µM)
- MIC (Cryptococcus neoformans [4]; Cryptococcus neoformans SA2): 2 µg/mL (≈ 6.83 µM)
- MIC (Cryptococcus neoformans [4]; [19]): 8 µg/mL (≈ 27.3 µM)
- MIC (Cryptococcus neoformans [4]; [20]): 8 µg/mL (≈ 27.3 µM)
- MIC (Cryptococcus neoformans [4]; [21]): 8 µg/mL (≈ 27.3 µM)
- MIC (Cryptococcus neoformans [4]; [22]): 8 µg/mL and 16 µg/mL
- MIC (Cryptococcus neoformans [4]; [23]): 8 µg/mL (≈ 27.3 µM)
- MIC [5]: 8 µg/mL and 16 µg/mL
- Screen at 16 μg/mL [5]: No growth
- MIC (C. gattii; [24]): 8 µg/mL (≈ 27.3 µM)
- MIC (C. gattii; [25]): 8 µg/mL (≈ 27.3 µM)
- MIC (C. gattii; [26]): 8 µg/mL (≈ 27.3 µM)
- MIC (C. gattii; [27]): 8 µg/mL and 16 µg/mL
- MIC (C. gattii; [28]): 8 µg/mL (≈ 27.3 µM)
- MIC at 24-48 hours (Candida albicans [6]; Candida albicans ATCC 90028): 16 µg/mL (≈ 54.6 µM)
- MIC at 24-48 hours (Candida albicans [6]; Candida albicans SA3): 16 µg/mL (≈ 54.6 µM)
- antifungal activity against the two isolates of Candida albicans (Candida albicans [6]): high antifungal activity
- MIC at 24-48 hours (Cryptococcus neoformans [7]; Cryptococcus neoformans SA1): 2 µg/mL (≈ 6.83 µM)
- MIC at 24-48 hours (Cryptococcus neoformans [7]; Cryptococcus neoformans SA2): 2 µg/mL (≈ 6.83 µM)
- MIC (Candida albicans [8]; [29]): 4 µg/mL (≈ 13.7 µM)
- MIC (Candida albicans [8]; [30]): 8 µg/mL (≈ 27.3 µM)
- MIC (Candida albicans [8]; Candida albicans, 1st): 4 µg/mL (≈ 13.7 µM)
- MIC (Candida albicans [8]; Candida albicans, 2nd): 4 µg/mL (≈ 13.7 µM)
- MIC (Candida parapsilosis; 1st): 4 µg/mL (≈ 13.7 µM)
- MIC (Candida parapsilosis; 2nd): 4 µg/mL (≈ 13.7 µM)

Structure (SMILES): C/C(=N\NC(=N)N/N=C(\C)c1ccc(C(C)(C)C)cc1)c1ccc(C(C)(C)C)cc1.Cl [NCL219]
- MIC (Candida albicans [1]; C. albicans SA3): 16 µg/mL
- MIC (Candida albicans [1]; Candida albicans ATCC 90028): 32 µg/mL
- MIC (Candida albicans [1]; [9]): >16 µg/mL
- MIC (Candida albicans [1]; [10]): 4 µg/mL
- MIC (Candida albicans [1]; [11]): 8 µg/mL
- MIC (Candida albicans [1]; [12]): >16 µg/mL
- MIC (Candida albicans [1]; [13]): >16 µg/mL
- MIC (Candida albicans [1]; [14]): >16 µg/mL
- MIC (Candida albicans [1]; [15]): >16 µg/mL
- MIC (Candida albicans [1]; [16]): >16 µg/mL
- MIC (Candida albicans [1]; [17]): >16 µg/mL
- MIC (Candida albicans [1]; [18]): >16 µg/mL
- activity against one or more isolates of Cryptococcus neoformans and Candida albicans (Candida albicans [1]): highly active
- MIC (Cryptococcus neoformans [2]; Cryptococcus neoformans SA1): 2 µg/mL
- MIC (Cryptococcus neoformans [2]; Cryptococcus neoformans SA2): 2 µg/mL
- MIC (Candida albicans [3]; C. albicans SA3): 16 µg/mL
- MIC (Candida albicans [3]; Candida albicans ATCC 90028): 32 µg/mL
- MIC (Cryptococcus neoformans [4]; Cryptococcus neoformans SA1): 2 µg/mL
- MIC (Cryptococcus neoformans [4]; Cryptococcus neoformans SA2): 2 µg/mL
- MIC (Cryptococcus neoformans [4]; [19]): >32 µg/mL
- MIC (Cryptococcus neoformans [4]; [20]): >32 µg/mL
- MIC (Cryptococcus neoformans [4]; [21]): >32 µg/mL
- MIC (Cryptococcus neoformans [4]; [22]): >32 µg/mL
- MIC (Cryptococcus neoformans [4]; [23]): >32 µg/mL
- MIC [5]: >64 µg/mL
- Screen at 16 μg/mL [5]: Growth
- MIC (C. gattii; [24]): >32 µg/mL
- MIC (C. gattii; [25]): >32 µg/mL
- MIC (C. gattii; [26]): >32 µg/mL
- MIC (C. gattii; [27]): >32 µg/mL
- MIC (C. gattii; [28]): >32 µg/mL
- MIC at 24-48 hours (Candida albicans [6]; Candida albicans ATCC 90028): 32 µg/mL
- MIC at 24-48 hours (Candida albicans [6]; Candida albicans SA3): 16 µg/mL
- antifungal activity against the two isolates of Candida albicans (Candida albicans [6]): high antifungal activity
- MIC at 24-48 hours (Cryptococcus neoformans [7]; Cryptococcus neoformans SA1): 2 µg/mL
- MIC at 24-48 hours (Cryptococcus neoformans [7]; Cryptococcus neoformans SA2): 2 µg/mL
- MIC (Candida albicans [8]; [29]): >32 µg/mL
- MIC (Candida albicans [8]; [30]): >32 µg/mL
- MIC (Candida albicans [8]; Candida albicans, 1st): >32 µg/mL
- MIC (Candida albicans [8]; Candida albicans, 2nd): >32 µg/mL
- MIC (Candida parapsilosis; 1st): >32 µg/mL
- MIC (Candida parapsilosis; 2nd): >32 µg/mL

Source: patent publication US20230310388A1, “Methods and Compositions for Treating Fungal Infections” (Neoculi Pty Ltd, priority 2020, published 2023)
